This assay deals with T1, TMPRSS4 serine protease (Homo sapiens, UniProt Q9NRS4).
T1 construct: TMPRSS4 serine protease domain (205th Val˜437th Leu) was cloned in pET21b/NdeI-XhoI; inferred from pET21b XhoI cloning and Ni-NTA purification) (C); made in house; host or cells: E. coli BL21 (DE3)
The experiment in a line: Inhibitory effect on TMPRSS4 serine protease activity using peptide substrate. In kind it is biochemical. The note with it: for inhibition at 10 µM / Intracellular protease activity Inhibition % 10 uM: 10 uM compound; for inhibition at 10 µM / inhibition at 30 µM / Intracellular protease activity Inhibition % 10 uM / inhibition at 100 µM: kallikrein peptide substrate 100 μM, DMSO negative control; for inhibition at 10 µM: read-out: Intracellular protease activity Inhibition % 10 uM; for inhibition at 30 µM: 30 uM compound, read-out: Intracellular protease activity Inhibition % 30 uM; for inhibition at 100 µM: 100 uM compound, read-out: Intracellular protease activity Inhibition % 100 uM. The protocol: TMPRSS4 serine protease domain (205th Val˜437th Leu) was cloned in pET21b/NdeI-XhoI, which was introduced in E. coli BL21 (DE3). At this time, FlagX2-enterokinase cleavage site ([…]; total 15 amino acids) was inserted in N-terminal of TMPRSS4 serine protease domain as shown in FIG. 1. The forward and reverse primers for PCR used for the cloning were presented by SEQ. ID. NO: 1 and NO: 2.
The cells were cultured in 10 ml of LB containing ampicillin at 37° C. overnight. IL of LB+ampicillin was added thereto, followed by further culture until OD reached 0.6˜0.8. 0.1 mM IPTG was added thereto, followed by further culture for 16 hours. Cell pellet was obtained, purified by Ni-NTA (Qiagen), and dialyzed. TMPRSS4 serine protease (pro-form) labeled with 2 mg of 2Xflag-enterokinase cleavage site was conjugated to Ni-NTA resin (4°, overnight). Enterokinase (NEB) was treated thereto at the concentration of 0.0002%/w/w at room temperature for 5 hours. The sample was washed, eluted with 50 mM imidazole in 20 mM of sodium phosphate buffer, and then dialyzed.
The protein activity was evaluated by measuring fluorescence shown during hydrolysis of the peptide. […] Reaction was induced after adding 100 μM of the peptide substrate into reaction buffer (50 mM Tris-HCl (pH 8.0), 10 mM CaCl2, 1 μM ZnCl2). Then, fluorescence was measured at 5 minutes interval (excitation 385 nm, emission 455 nm).
Then, fluorescence (excitation 385 nm/emission 455 nm) was measured at 5 minutes interval for 150 minutes. […] Dimethylsulfoxide (DMSO) was used as the negative control.

SMILES strings stand for the structures.

T1 sequence (Q9NRS4 205-437): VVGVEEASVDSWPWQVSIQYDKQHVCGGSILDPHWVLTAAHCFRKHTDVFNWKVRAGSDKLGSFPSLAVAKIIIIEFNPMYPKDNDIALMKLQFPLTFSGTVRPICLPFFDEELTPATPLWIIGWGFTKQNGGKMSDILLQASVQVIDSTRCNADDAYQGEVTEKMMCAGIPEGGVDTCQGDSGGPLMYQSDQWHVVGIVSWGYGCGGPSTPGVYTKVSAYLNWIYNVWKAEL

Take `O=C(Nc1cc(C(F)(F)F)cc(C(F)(F)F)c1)c1ccccc1O` [Example 5, N-(3,5-bis(trifluoromethyl)phenyl)-2-hydroxybenzamide]: the inhibition at 10 µM is 0% and the inhibition at 30 µM was determined as 20%.

On to `Cc1nc(NC(=O)c2cc(Cl)ccc2O)sc1C` [Example 72, 5-chloro-N-(4,5-dimethylthiazol-2-yl)-2-hydroxybenzamide], for which the inhibition at 10 µM worked out at 16%.

In the case of `Cc1nc(NC(=O)c2cc(Cl)ccc2O)n[nH]1` [Example 75, 5-chloro-2-hydroxy-N-(5-methyl-1H-1,2,4-triazol-3-yl)benzamide], the “Intracellular protease activity Inhibition % 10 uM” value is reported as 58% and the inhibition at 10 µM fell in the range of 51 to 100%.

With `N#Cc1cccc(NC(=O)c2cc(Cl)ccc2O)c1` [Example 11, 5-chloro-N-(3-cyanophenyl)-2-hydroxybenzamide], the inhibition at 10 µM was determined as 12%, the inhibition at 30 µM came out at 47% and the inhibition at 100 µM is 88%.

For `O=C(Nc1nc2c(s1)CCCC2)c1cc(Cl)ccc1O` [Example 70, 5-chloro-2-hydroxy-N-(4,5,6,7-tetrahydrobenzo[d]thiazol-2-yl)benzamide], the “Intracellular protease activity Inhibition % 10 uM” value is given as 77%.

Turning to `O=C(Nc1cc(C(F)(F)F)ccc1Cl)c1cc(Cl)ccc1O` [Example 23, 5-chloro-N-(2-chloro-5-(trifluoromethyl)phenyl)-2-hydroxybenzamide], the “Intracellular protease activity Inhibition % 10 uM” value came to 64%, the inhibition at 10 µM lay in the range of 51 to 100%, the inhibition at 30 µM was determined as 99% and the inhibition at 100 µM turned out to be 100%.

Take `CC(=O)Nc1ccc(O)c(C(=O)Nc2cc(C(F)(F)F)cc(C(F)(F)F)c2)c1` [Example 35, 5-acetamido-N-(3,5-bis(trifluoromethyl)phenyl)-2-hydroxybenzamide]: the inhibition at 10 µM came to 0% and the inhibition at 30 µM was 0%.

Consider `O=C(NCc1cc(C(F)(F)F)cc(C(F)(F)F)c1)c1cc(Cl)ccc1O` [Example 24, N-(3,5-bis-trifluoromethyl-benzyl)-5-chloro-2-hydroxy-benzamide], for which the inhibition at 10 µM amounted to 36% and the inhibition at 30 µM is 63%.

Turning to `O=C(Nc1cc(C(F)(F)F)cc(C(F)(F)F)c1)c1cc(Cl)ccc1OCc1ccccc1` [Example 58, 2-benzyloxy-N-(3,5-bis-trifluoromethyl-phenyl)-5-chlorobenzamide], the inhibition at 10 µM was 0% and the inhibition at 30 µM was 6%.

Turning to `Cc1csc(NC(=O)c2cc(Cl)ccc2O)n1` [Example 50, 5-chloro-2-hydroxy-N-(4-methylthiazole-2-yl)benzamide], the inhibition at 30 µM amounted to 0% and the inhibition at 100 µM came to 67%.

`O=C(Nc1cc(C(F)(F)F)cc(C(F)(F)F)c1)c1cnc2ccccc2c1O` [Example 68, N-(3,5-bis(trifluoromethyl)phenyl)-4-hydroxyquinoline-3-carboxamide]: the inhibition at 10 µM was 0% and the inhibition at 30 µM is 0%.

In the case of `O=C(Nc1ccccn1)c1cc(Cl)ccc1O` [Example 40, 5-chloro-2-hydroxy-N-(pyridine-2-yl)benzamide], the inhibition at 30 µM came out at 0% and the inhibition at 100 µM turned out to be 11%.

For `NCCc1ccc(S(=O)(=O)F)cc1` [AEBSF, reference compound], under “1 mM, trypsin and kallikrein peptide substrates”, the “TMPRSS4 serine protease active form activity (hydrolysis of peptide substrate)” value is given as “inhibited”.

Regarding `Cc1cc(C)nc(NC(=O)c2cc(Cl)ccc2O)n1` [Example 48, 5-chloro-N-(4,6-dimethylpyrimidine-2-yl)-2-hydroxybenzamide], the inhibition at 30 µM worked out at 0% and the inhibition at 100 µM was 0%.

Consider `Cc1cnc(NC(=O)c2cc(Cl)ccc2O)s1` [Example 71, 5-chloro-2-hydroxy-N-(5-methylthiazole-2-yl)benzamide], for which the “Intracellular protease activity Inhibition % 10 uM” value is reported as 66% and the inhibition at 10 µM was 51 to 100%.

`Cn1ccc(NC(=O)c2cc(Cl)ccc2O)n1` [Example 74, 5-chloro-2-hydroxy-N-(1-methyl-1H-pyrazol-3-yl)benzamide]: the inhibition at 10 µM turned out to be 14%.

With `O=C(Nc1cc(Cl)cc(Cl)c1)c1cc(Cl)ccc1O` [Example 61, 5-chloro-N-(3,5-dichlorophenyl)-2-hydroxybenzamide], the inhibition at 10 µM came to 15% and the inhibition at 30 µM was determined as 58%.

With `O=C(Nc1cccc(C(F)(F)F)c1)c1cc(Cl)ccc1O` [Example 10, 5-chloro-N-(3-(trifluoromethyl)phenyl)-2-hydroxybenzamide], the inhibition at 10 µM came out at 37% and the inhibition at 30 µM stood at 91%.

`COc1ccc(O)c(C(=O)Nc2cc(C(F)(F)F)cc(C(F)(F)F)c2)c1` [Example 7, N-(3,5-bis(trifluoromethyl)phenyl)-2-hydroxy-5-methoxybenzamide]: the inhibition at 10 µM is 0% and the inhibition at 30 µM is 53%.

`CC1CN(Cc2csc(NC(=O)c3cc(Cl)ccc3O)n2)CC(C)O1` (stereo not shown) [Example 73, 5-chloro-N-(4-((2,6-dimethylmorpholino)methyl)thiazol-2-yl)-2-hydroxybenzamide]: the “Intracellular protease activity Inhibition % 10 uM” value was found to be 85%.

Consider `O=C(Nc1ccc(Cl)nc1)c1cc(Cl)ccc1O` [Example 45, 5-chloro-N-(6-chloropyridine-3-yl)-2-hydroxybenzamide], for which the inhibition at 30 µM stood at 6% and the inhibition at 100 µM was determined as 39%.

For `O=C(Nc1cc(C(F)(F)F)cc(C(F)(F)F)c1)c1cc(F)ccc1O` [Example 14, N-(3,5-bis(trifluoromethyl)phenyl)-5-fluoro-2-hydroxybenzamide], the inhibition at 10 µM amounted to 0% and the inhibition at 30 µM is 55%.

Consider `O=C(Nc1ncccn1)c1cc(Cl)ccc1O` [Example 49, 5-chloro-2-hydroxy-N-(pyrimidine-2-yl)benzamide], for which the inhibition at 30 µM amounted to 0% and the inhibition at 100 µM amounted to 2%.

For `CC(=O)Oc1ccc(Cl)cc1C(=O)Nc1cc(C(F)(F)F)cc(C(F)(F)F)c1` [Example 57, 2-(3,5-bis(trifluoromethyl)phenylcarbamoyl)-4-chlorophenylacetate], the inhibition at 10 µM came out at 0% and the inhibition at 30 µM is 4%.

Turning to `O=C(Nc1cc(C(F)(F)F)ccc1Br)c1cc(Cl)ccc1O` [Example 20, N-(2-bromo-5-(trifluoromethyl)phenyl)-5-chloro-2-hydroxybenzamide], the inhibition at 10 µM came out at 40% and the inhibition at 30 µM came to 100%.

On to `Cc1cc(C)cc(NC(=O)c2cc(Cl)ccc2O)c1` [Example 60, 5-chloro-N-(3,5-dimethylphenyl)-2-hydroxybenzamide], for which the inhibition at 30 µM came to 44% and the inhibition at 100 µM stood at 56%.

Turning to `O=C(Nc1nc(-c2cccnc2)cs1)c1cc(Cl)ccc1O` [Example 76, 5-chloro-2-hydroxy-N-(4-(pyridin-3-yl)thiazol-2-yl)benzamide], the inhibition at 10 µM turned out to be 30%.

Turning to `O=C(Nc1nc(C(F)(F)F)cs1)c1cc(Cl)ccc1O` [Example 52, 5-chloro-2-hydroxy-N-(4-(trifluoromethyl)thiazole-2-yl)benzamide], the inhibition at 30 µM was 61% and the inhibition at 100 µM was determined as 100%.

Turning to `Cc1cc(Cl)cc(C(=O)Nc2cc(C(F)(F)F)cc(C(F)(F)F)c2)c1O` [Example 34, N-(3,5-bis(trifluoromethyl)phenyl)-5-chloro-2-hydroxy-3-methylbenzamide], the inhibition at 10 µM was determined as 33% and the inhibition at 30 µM was found to be 78%.

For the origin of these results see patent US9266872B2, “2-hydroxyarylamide derivative or pharmaceutically acceptable salt thereof, preparation method thereof, and pharmaceutical composition for preventing or treating cancer containing same as active ingredient” (KOREA RESEARCH INSTITUTE OF BIOSCIENCE AND BIOTECHNOLOGY, priority 2011, dated 2016).
